Source: patent US12583851B2, “Heteroaryl-substituted pyrazine derivatives as pesticides” (Elanco Animal Health GmbH, priority 2019, dated 2026)

How the values were obtained:
Format in all cases: in vivo
[1] = system: Rhipicephalus (Boophilus) microplus larvae (strain Parkhurst, resistant against synthetic pyrethroids); assay: Rhipicephalus (Boophilus) microplus in-vitro contact test, larval cattle tick; settings: after 48 hours, read-out: efficacy (larvae dead or moribund); for pest or weed control at 1 µg/cm2, 100 g/ha: 1 μg/cm^2 (=100 g/ha); for pest or weed control at 5 µg/cm2, 500 g/ha: 5 μg/cm^2 (=500 g/ha)
Procedure, shortened: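 Pyrethroid-resistant larvae (strain Parkhurst), 20–50 per tube, exposed by contact to a dried acetone film of compound (5 μg/cm² at 900 ppm) for 48 h at 27 °C and 85% humidity. Percent dead or moribund larvae scored from negative geotactic behaviour.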

[2] = system: adult cat fleas (Ctenocephalides felis); assay: Ctenocephalides felis in-vitro contact test, adult cat flea; settings: after 48 hours, read-out: efficacy (fleas dead or moribund); for pest or weed control at 1 µg/cm2, 100 g/ha: 1 μg/cm^2 (=100 g/ha); for pest or weed control at 5 µg/cm2, 500 g/ha: 5 μg/cm^2 (=500 g/ha)
Procedure, shortened: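 Acetone solution coated onto glass tube walls; 900 ppm gives 5 μg/cm². Once dry, 5–10 adult fleas per tube held at room temperature for 48 h. Efficacy (%) is the share of fleas dead or moribund, i.e. unable to climb away on a 45–50° C heating plate.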

[3] = system: adult brown dog ticks (Rhipicephalus sanguineus); assay: Rhipicephalus sanguineus in-vitro contact test, adult brown dog ticks; settings: 48 h, after 48 hours, read-out: efficacy (ticks dead or moribund); for pest or weed control at 5 µg/cm2, 500 g/ha: 5 μg/cm^2 (=500 g/ha); for pest or weed control at 1 µg/cm2, 100 g/ha: 1 μg/cm^2 (=100 g/ha)
Procedure, shortened: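 Acetone solution coated on glass tube inner walls (900 ppm, giving 5 μg/cm^2); after drying, 5–10 adult ticks added and kept 48 h at room temperature. Efficacy scored as percent dead or moribund, i.e., ticks unable to climb away on a 45–50 °C heating plate within 5 min.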

[4] = system: larvae of the banded cucumber beetle (Diabrotica balteata); assay: Diabrotica balteata spray test; settings: 168 h, after 7 days, read-out: efficacy (seedling growth); for pest or weed control at 6.4 µg/disc, 20 g/ha: 20 g/ha (=6.4 μg/well); for pest or weed control at 32 µg/disc, 100 g/ha: 100 g/ha (=32 μg/well)
Procedure, shortened: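 Efficacy was read 7 days after infesting each unit with 10–20 banded cucumber beetle larvae, as % of seedlings growing like untreated, uninfested controls. Before infestation, wheat seeds germinated 1 day on agar (5 per well) were sprayed with the active ingredient. The active was formulated in acetone/DMF and diluted in water containing emulsifier.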

[5] = system: larvae of the southern green stink bug (Nezara viridula); assay: Nezara viridula spray test; settings: 96 h, 500 g/ha, barley plants, after 4 days
Procedure: Nezara viridula—Spray Test
(§1) Solvent: 78.0 parts by weight of acetone • • 1.5 parts by weight of dimethylformamide
(§2) Emulsifier: alkylarylpolyglycol ether
(§3) To produce a suitable preparation of active compound, 1 part by weight of active compound is mixed with the stated amount of solvent, and the concentrate is diluted with water, containing an emulsifier concentration of 1000 ppm, to the desired concentration. Further test concentrations are prepared by dilution with emulsifier containing water.
Barley plants (Hordeum vulgare) infested with larvae of the southern green stink bug (Nezara viridula) are sprayed with a test solution containing the desired concentration of the active ingredient.
After 4 days mortality in % is determined. 100% means all the stink bugs have been killed; 0% means none of the stink bugs have been killed.

[6] = system: brown planthopper (Nilaparvata lugens); assay: Nilaparvata lugens spray test; settings: 96 h, 500 g/ha, rice plants, after 4 days
Procedure: Nilaparvata lugens—Spray Test
as §1, §2
as §3, with “solvents” for “solvent,”, “and” for “and the concentrate”
Rice plants (Oryza sativa) are sprayed with a preparation of the active ingredient of the desired concentration and the plants are infested with the brown planthopper (Nilaparvata lugens).
After 4 days mortality in % is determined. 100% means all planthoppers have been killed and 0% means none of the planthoppers have been killed.

[7] = system: fall armyworm larvae (Spodoptera frugiperda); assay: Spodoptera frugiperda spray test; settings: 168 h, maize leaf sections, after 7 days
Procedure, shortened: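 Percent larval kill read at day 7, from 0% (no caterpillars dead) to 100% (all dead). Larvae were placed on dried Zea mays leaf discs previously sprayed with test preparations made from an acetone/DMF solution diluted in 1000 ppm emulsifier-containing water.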

[8] = system: green peach aphid (Myzus persicae); assay: Myzus persicae spray test; settings: foliar, 120 h, Chinese cabbage leaf disks, after 5 days
Procedure: Myzus persicae—Spray Test
Solvent: 78.0 parts by weight acetone • 1.5 parts by weight dimethylformamide
as §2
as §3, with “solvents” for “solvent,”, “and” for “and the concentrate”
Chinese cabbage (Brassica pekinensis) leaf disks infected with all instars of the green peach aphid (Myzus persicae), are sprayed with a preparation of the active ingredient of the desired concentration.
After 5 days mortality in % is determined. 100% means all aphids have been killed and 0% means none of the aphids have been killed.

[9] = system: southern root-knot nematode (Meloidogyne incognita); assay: Meloidogyne incognita test; settings: 20 ppm, after 14 days
Procedure: Meloidogyne incognita—Test
Solvent: 125.0 parts by weight of acetone
To produce a suitable preparation of active compound, 1 part by weight of active compound is mixed with the stated amount of solvent, and the concentrate is diluted with water to the desired concentration.
Vessels are filled with sand, a solution of the active ingredient, a suspension containing eggs and larvae of the southern root-knot nematode (Meloidogyne incognita) and salad seeds. The salad seeds germinate and the seedlings grow. Galls develop in the roots.
After 14 days the nematicidal activity is determined based on the percentage of gall formation. 100% means no galls were found and 0% means the number of galls found on the roots of the treated plants was equal to that in untreated control plants.

| SMILES | pest or weed control at 1 µg/cm2, 100 g/ha [1] | pest or weed control at 5 µg/cm2, 500 g/ha [1] | pest or weed control at 1 µg/cm2, 100 g/ha [2] | pest or weed control at 5 µg/cm2, 500 g/ha [2] | pest or weed control at 5 µg/cm2, 500 g/ha [3] | pest or weed control at 6.4 µg/disc, 20 g/ha [4] | pest or weed control at 32 µg/disc, 100 g/ha [4] | mortality at 500 g/ha [5] | mortality at 500 g/ha [6] | mortality at 100 g/ha [7] | pest or weed control at 1 µg/cm2, 100 g/ha [3] | mortality at 100 g/ha [8] | nematicidal activity (based on gall formation) [9] |
| --- | --- | --- | --- | --- | --- | --- | --- | --- | --- | --- | --- | --- | --- |
| CCN(C)C(=O)c1cnc(-c2nccnc2C(C)N(CC2CC2)C(=O)c2cc(C(F)(F)F)cc(C(F)(F)F)c2)s1 (racemic) [Example I-83, (rac)-2-{3-[1-{[3,5-Bis(trifluoromethyl)benzoyl](cyclopropylmethyl)amino}ethyl]pyrazin-2-yl}-N-ethyl-N-methyl-1,3-thiazole-5-carboxamide] | 100% | 100% | 100% | 100% | 80% | 100% | 100% | 100% | 100% | 100% |  |  |  |
| CC(NC(=O)c1cc(Cl)cc(C(F)(F)F)c1)c1nccnc1-n1cc(C(=O)N(C)CC2CC2)cn1 (racemic) [Example I-132, (rac)-1-(3-{1-[3-Chloro-5-(trifluoromethyl)benzamido]ethyl}pyrazin-2-yl)-N-(cyclopropylmethyl)-N-methyl-1H-pyrazole-4-carboxamide] | 100% | 100% | 100% | 100% | 100% | 100% | 100% | 100% | 100% | 100% | 100% |  |  |
| CC(NC(=O)c1cc(C(F)(F)F)cc(C(F)(F)F)c1)c1nccnc1-c1ccc(C(=O)N(C)CC2CC2)cn1 (single isomer, unassigned) [Example I-164, 6-(3-{1-[3,5-Bis(trifluoromethyl)benzamido]ethyl}pyrazin-2-yl)-N-(cyclopropylmethyl)-N-methylpyridine-3-carboxamide] |  |  |  |  |  |  |  |  |  | 100% |  | 90% |  |
| CC(NC(=O)c1cc(Br)cc(OC(F)(F)F)c1)c1nccnc1-n1cc(C(=O)N(C)CC2CC2)cn1 (racemic) [Example I-134, (rac)-1-(3-{1-[3-Bromo-5-(trifluoromethoxy)benzamido]ethyl}pyrazin-2-yl)-N-(cyclopropylmethyl)-N-methyl-1H-pyrazole-4-carboxamide] | 100% | 100% | 80% | 100% | 100% | 100% | 100% | 100% | 100% | 100% | 100% |  |  |
| CC(NC(=O)c1cc(Cl)cc(OC(F)(F)F)c1)c1nccnc1-c1nccs1 (racemic) [Example I-52, (rac)-3-Chloro-N-{1-[3-(1,3-thiazol-2-yl)pyrazin-2-yl]ethyl}-5-(trifluoromethoxy)benzamide] |  |  |  |  |  | 100% | 100% |  |  |  |  |  | 90% |
| CCN(CC)C(=O)c1ccc(-c2nccnc2C(C)NC(=O)c2cc(C(F)(F)F)cc(C(F)(F)F)c2)nc1 (single isomer, unassigned) [Example I-160, 6-(3-{1-[3,5-Bis(trifluoromethyl)benzamido]ethyl}pyrazin-2-yl)-N,N-diethylpyridine-3-carboxamide] |  |  |  |  |  |  |  |  |  | 100% |  | 90% |  |
| CC(NC(=O)c1cc(C(F)(F)F)cc(C(F)(F)F)c1)c1nccnc1-n1cc(C(=O)N(C)C)cn1 (racemic) [Example I-88, (rac)-1-(3-{1-[3,5-Bis(trifluoromethyl)benzamido]ethyl}pyrazin-2-yl)-N,N-dimethyl-1H-pyrazole-4-carboxamide] | 100% | 100% |  |  |  | 100% | 100% |  |  | 100% |  | 90% |  |
| CC(NC(=O)c1cc(C(F)F)cc(C(F)F)c1)c1nccnc1-c1ncc(C(=O)N(C)CC2CC2)s1 (racemic) [Example I-141, (rac)-2-(3-{1-[3,5-Bis(difluoromethyl)benzamido]ethyl}pyrazin-2-yl)-N-(cyclopropylmethyl)-N-methyl-1,3-thiazole-5-carboxamide] | 100% | 90% |  | 100% |  |  | 100% | 100% | 100% | 100% |  |  |  |
| CC(NC(=O)c1cc(OC(F)(F)F)cc(S(C)(=O)=O)c1)c1nccnc1-c1ncc(C(=O)N(C)CC2CC2)s1 (racemic) [Example I-140, (rac)-N-(Cyclopropylmethyl)-2-(3-{1-[3-(methanesulfonyl)-5-(trifluoromethoxy)benzamido]ethyl}pyrazin-2-yl)-N-methyl-1,3-thiazole-5-carboxamide] |  |  |  | 90% |  |  |  |  | 100% | 100% |  |  |  |
| CC(NC(=O)c1cc(C(F)(F)F)cc(C(F)(F)F)c1)c1nccnc1-c1ccc(C(=O)N(C)C)cn1 (racemic) [Example I-38, (rac)-6-(3-{1-[3,5-Bis(trifluoromethyl)benzamido]ethyl}pyrazin-2-yl)-N,N-dimethylpyridine-3-carboxamide] | 100% | 100% | 90% |  |  |  |  |  |  | 100% |  | 90% |  |
| CC(NC(=O)c1cc(C(F)(F)F)cc(C(F)(F)F)c1)c1nccnc1-c1ncc(C#N)s1 (racemic) [Example I-82, (rac)-N-{1-[3-(5-Cyano-1,3-thiazol-2-yl)pyrazin-2-yl]ethyl}-3,5-bis(trifluoromethyl)benzamide] | 100% | 100% | 100% | 100% |  |  | 100% |  |  |  |  |  | 100% |
| CC(NC(=O)c1cc(C(F)(F)F)cc(C(F)(F)F)c1)c1nccnc1-c1ccc(C(=O)N2C[C@@H](C)O[C@@H](C)C2)cn1 (single isomer, unassigned) [Example I-166, N-[1-(3-{5-[(cis)-2,6-Dimethylmorpholine-4-carbonyl]pyridin-2-yl}pyrazin-2-yl)ethyl]-3,5-bis(trifluoromethyl)benzamide] |  |  |  |  |  |  |  |  |  | 100% |  | 90% |  |
